Experimental data as given in patent publication US20100247444A1, “COMPOUND, […], NUCLEAR […] RESONANCE […] METHOD, NUCLEAR […] RESONANCE IMAGING METHOD, MASS SP[…] AND MASS SP[…] METHOD” (KYOTO UNIVERSITY, priority 2007, published 2010).

Details: Meth-A cancer bearing BALB/c mouse, 100 μl of 2 mg/ml in PBS via tail vein, organs collected after 1 hour
Protocol: (i) Preparation of a cancer bearing mouse Meth-A cells cultured in abdominal cavity of a BALB/c mouse were harvested by administrating 50 ml saline to the mouse. The cells were collected by centrifugation and resuspended in PBS (50 ml). The cells were counted and prepared at 2.0×10^7/ml. 100 μl of the solution containing the cells was subcutaneously injected to a left foot of another BALE/c mouse. […] After 1 hour, the mouse was dissected and the necessary organs (blood (200 μl), liver, kidney, cancer) were collected into microtubes. 1× Lysis buffer (500 μl) was added to each of the tubes and the organs were mashed by using beads. The microtubes were centrifuged (14,000 rpm, 30 min) for the debris to be precipitated and the supernatants were collected and subjected to multiple resonance measurement utilizing magnetic coherence transfer between three elements of ^1H—^13C—^15N.

## [13CH3][15N+]([13CH3])([13CH3])CCO [^13C3—^15N-choline chloride]
Cancer tissue lysate supernatant
  signals derived from methyl groups of cholines (triple resonance NMR, 3.0 ppm) in cancer: detected
Kidney lysate supernatant
  signals derived from methyl groups of cholines (triple resonance NMR, 3.0 ppm) in kidney: detected
